# Assay results published in ChEMBL document CHEMBL5230120, “Antiviral potential of natural products from marine microbes” (Eur J Med Chem, 2020).
# pEC50, pIC50: −log10 of the molar value. Starred links: 1 amine or outer side, 2 acyl side, 3 side chain; linkers in the order of their positions; H or OH if unused. Positions of bridges follow the written chain, without caps; N, C: chain ends. Non-standard residues stand in square brackets, D forms with d. Residues, ends and D or L forms follow the SMILES beside them. X1 = CCCCCCCCC[C@@H](CCCC(=O)[*:1])O[*:2]; d(aThr) = C[C@@H](O)[C@@H](N)C(=O)O; dNMeY = CN[C@H](Cc1ccc(O)cc1)C(=O)O; aIle = CC[C@@H](C)[C@H](N)C(=O)O
# What was measured:
# [1] = system: Human alphaherpesvirus 1; assay type: functional, organism-based; details: Human alphaherpesvirus 1, Vero, 72 h
# [2] = system: Human alphaherpesvirus 1; assay type: functional, organism-based; details: Human alphaherpesvirus 1, 15577, Vero
# [3] = system: Influenza A virus; assay type: functional
# [4] = system: Influenza A virus; assay type: functional, organism-based; details: A/Puerto Rico/8/1934(H1N1), MDCK, 48 h
# [5] = system: Human immunodeficiency virus 1; assay: Antiviral activity against HIV1 VSV-G pseudotyped virus infected in human SUP-T1 cells infected using supernatant of virus-producing 293T cells incubated for 48 hrs by firefly luciferase assay; assay type: functional, organism-based; details: Human immunodeficiency virus 1, HEK293, 48 h
# [6] = system: Respiratory syncytial virus; assay type: functional, organism-based; details: human respiratory syncytial virus, HEp-2
# [7] = system: Human immunodeficiency virus 1; assay: Antiviral activity against HIV-1 infected in human HEK293 cells co-expressing firefly luciferase gene assessed as inhibition of viral growth incubated for 48 hrs by firefly luciferase assay; assay type: functional, organism-based; details: Human immunodeficiency virus 1, HEK293, 48 h
# [8] = Cytotoxicity against human HEK293 cells assessed as reduction in cell viability; assay type: toxicity, cell-based
# [9] = system: Human alphaherpesvirus 1; assay type: functional, organism-based; details: Human alphaherpesvirus 1, Vero, 72 h; remark: listed apart in the source
# [10] = system: Influenza A virus; assay: microbe, parasite or virus in culture; details: H3N2, MDCK, 48 h
# [11] = system: Influenza A virus; assay: microbe, parasite or virus in culture; details: H1N1, MDCK, 48 h
# [12] = system: Human alphaherpesvirus 1; assay type: functional, organism-based; details: Human alphaherpesvirus 1, Vero, 72 h; remark: listed apart in the source
# [13] = system: Chikungunya virus; assay: Antiviral activity against CHIKV infected in Golden hamster BHK-21 cells assessed as reduction in viral titer incubated for 3 days by plaque assay; assay type: functional, organism-based; details: BHK-21, 72 h
# [14] = system: Human alphaherpesvirus 1; assay type: functional, organism-based; details: Human alphaherpesvirus 1, KOS, Vero, 72 h
# [15] = system: Influenza A virus; assay type: functional, organism-based; details: H1N1
# [16] = system: Enterovirus A71; assay type: functional, organism-based; details: Enterovirus A, Vero
# [17] = system: Enterovirus A71; assay type: functional, organism-based; details: Enterovirus A, Vero; remark: listed apart in the source
# [18] = system: Western equine encephalitis virus; assay: Antiviral activity against Western equine encephalomyelitis virus Cba-87 infected in Golden hamster BSR-T7/5 cells assessed as reduction in viral RNA replication by RT-PCR analysis; assay type: functional, organism-based; details: Cba-87, BSR-T7/5
# [19] = system: Influenza A virus; assay: microbe, parasite or virus in culture; details: A/WSN/33 (H1N1), MDCK
# [20] = system: Influenza A virus; assay: microbe, parasite or virus in culture; details: H3N2, Vero
# [21] = system: Human alphaherpesvirus 1; assay type: functional, organism-based; details: Human alphaherpesvirus 1, Vero, 72 h; remark: listed apart in the source
# [22] = system: Hepatitis C virus; assay: Antiviral activity against HCV infected in human Huh7.5 cells incubated for 72 hrs by RT-PCR assay; assay type: functional, organism-based, Hepacivirus hominis; details: Huh7.5, 72 h
# [23] = system: Dengue virus; assay: Antiviral activity against Dengue virus serotype 2 infected in HEK293T/17 cells assessed as reduction in viral production at 50 uM incubated for 24 hrs by flow cytometric analysis; assay type: functional; design: scale not given: the % may be the effect or the level left
# [24] = system: Human alphaherpesvirus 1; assay type: functional, organism-based; details: Human alphaherpesvirus 1, Vero, 72 h; remark: listed apart in the source
structure (smiles),measurement,setting,value
CCCCCCCCC[C@H]1CCCC(=O)N[C@H]([C@@H](C)O)C(=O)N[C@H](C)C(=O)N2CCC[C@H]2C(=O)N[C@@H](CCC(N)=O)C(=O)N[C@H](Cc2ccc(O)cc2)C(=O)N[C@@H]([C@H](C)CC)C(=O)O1 ([d(aThr)][dA]PQ[dY][aIle]; linker N-C via X1),pEC50,[1],4.85
CC(C)[C@@H](NC(=O)[C@H](Cc1c[nH]c2ccccc12)NC(=O)[C@H](N)Cc1ccc(O)cc1)C(=O)O,pIC50,[2],4.70
CC(=O)c1c(O)cc2c3c(cccc13)C=C(C[C@@H](C)O)O2,inhibition at 50 µg/mL,[3],42.5%
CC1(C)CCc2cc(/C=C3\OC(=O)C=C3c3ccc(O)cc3)ccc2O1,pIC50,[4],4.06
C=C(CC[C@@H](C)[C@H]1CC=C2C3=C(CC[C@@]21C)[C@@]1(C)CC[C@H](O)C[C@@H]1CC3=O)C(C)C,pIC50,[5],5.46
CCCCC/C=C/C1=C(CO)[C@@H]2OC(C)(C)[C@@H](O)C[C@@]23O[C@H]3[C@@H]1O,pIC50,[6],4.52
COc1cc(CCCC(C)C)oc(=O)c1C,pIC50,[7],4.79
same,pIC50,[8],< 4.00
C/C=C(\C)[C@H]1C(C)=C[C@@H]2CCC[C@H](C)[C@H]2[C@@H]1/C(O)=C1\C(=O)[C@@H](C(C)C)N(C)C1=O,pIC50,[9],5.51
CC(=O)[C@H]1CC[C@H]2C3=CC(=O)[C@@]4(C)C[C@H](O)CC[C@]4(C)[C@H]3CC[C@]12C,pIC50,[6],6.92
CC[C@H]1O[C@@H]2O[C@H](/C=C/C=C/C=C/c3oc(=O)cc(OC/C=C(\C)C(=O)OC)c3C)[C@H](O)[C@]2(C)[C@@]1(C)O,pIC50,[10],8.21
same,pIC50,[11],5.46
CC(=O)C(C)(O)CCCCC[C@H]1C=CC(=O)O1 (stereo partly specified),pEC50,[12],4.60
CO[C@@H](CC[C@H](C)[C@H]1O[C@]23C[C@H](OC(=O)C[C@H]([C@@H](C)O)OC(=O)CC(=C(C)CC2(C)C)O3)[C@@H]1C)c1cccc(O)c1,pIC50,[13],4.65
O=C1C[C@H](O)Cc2cc3cc(O)cc(-c4ccccc4)c3c(O)c21,inhibition at 50 µg/mL,[3],47.8%
CO[C@@H](CC[C@H](C)[C@H]1O[C@@]23C[C@H](OC(=O)C[C@H]([C@@H](C)O)OC(=O)C[C@](O)(O2)[C@H](C)CC3(C)C)[C@@H]1C)c1cccc(O)c1 [DEBROMOAPLYSIATOXIN],pIC50,[13],5.89
COc1cc(O)c2c(c1)[C@H](O)[C@](O)(CC(C)O)CC2=O (stereo partly specified),IC50,[14],0.01 µg/mL
CCC(C)[C@@H]1C(=O)/C(=C(/O)[C@@H]2[C@@H]([C@@H]3O[C@H]3C)C(C)=C[C@@H]3CCC[C@H](C)[C@@H]23)C(=O)N1C (stereo partly specified),pIC50,[9],5.51
COc1cc(O)c2c(c1)[C@H](O)[C@@H](CC(C)=O)CC2=O,IC50,[14],1 µg/mL
CO[C@@H](CC[C@H](C)[C@H]1O[C@@]23C[C@H](OC(=O)C[C@H]([C@@H](C)O)OC(=O)C[C@](OC)(O2)[C@H](C)CC3(C)C)[C@@H]1C)c1cccc(O)c1,pIC50,[13],5.57
CCC[C@H]1C[C@H]2OC(=O)c3c(cc(O)c(OC)c3O)[C@H]2O1,pIC50,[4],3.76
NC(=O)c1ncn([C@@H]2O[C@H](CO)[C@@H](O)[C@H]2O)n1 [RIBAVIRIN],pIC50,[4],4.41
same,pIC50,[15],3.88
same,inhibition at 50 µg/mL,[3],45.3%
same,pIC50,[6],7.10
same,pIC50,[16],4.88
same,pIC50,[17],4.88
COc1cc(O)c2c(c1)[C@@H]1OC(C)(OC)C[C@]1(O)CC2=O (stereo partly specified),IC50,[14],0.1 µg/mL
O=C(O)c1ccccc1Nc1c(C[C@H](O)[C@H](O)CO)[nH]c2c(C(=O)O)cccc12,pIC50,[15],3.77
CCCCCCCC[C@H]1C(=O)O[C@H](C)[C@H](NC(=O)c2cccc(NC=O)c2O)C(=O)O[C@@H](C)[C@@H]1OC(=O)CC(C)CC (stereo partly specified),pIC50,[18],8.52
CCOC(=O)C1=C[C@@H](OC(CC)CC)[C@H](NC(C)=O)[C@@H](N)C1 [OSELTAMIVIR],pIC50,[19],4.33
same,pIC50,[20],7.47
O=C1Nc2ccc(Cl)cc2[C@@](C#CC2CC2)(C(F)(F)F)O1 [EFAVIRENZ],pIC50,[8],4.39
CC(C)/C=c1\[nH]c(=O)/c(=C/c2ccc(O)cc2)[nH]c1=O,pIC50,[4],4.38
COc1cc(O)c2c(c1)[C@H](O)[C@@H](CO)CC2=O,IC50,[14],1 µg/mL
COC(=O)[C@]1(Cc2ccc3c(c2)CCC(C)(C)O3)OC(=O)C(O)=C1c1ccc(O)cc1,IC50,[21],28.9 µg/mL
CCCCCCCCC[C@H]1CCCC(=O)N[C@H]([C@@H](C)O)C(=O)N[C@H](C)C(=O)N2CCC[C@H]2C(=O)N[C@@H](CCC(N)=O)C(=O)N[C@H](Cc2ccc(O)cc2)C(=O)N[C@@H](C(C)C)C(=O)O1,pEC50,[1],4.78
COc1ccc(-c2cc3c(c(=O)o2)C[C@H]2[C@@](C)(CC[C@@]4(O)C(C)(C)OC(=O)CC[C@]24C)O3)cc1,IC50,[21],16.4 µg/mL
COC(=O)/C(C)=C/COc1cc(=O)oc(/C=C/C=C/C=C/[C@H]2O[C@H]3O[C@H](C)[C@](C)(O)[C@@]3(C)[C@H]2O)c1C,pIC50,[10],8.05
COC1(Cc2ccc(O)cc2)OC(=O)C(O)=C1c1ccc(O)cc1 (stereo unspecified),IC50,[21],21.8 µg/mL
COc1ccc(C[C@@H]2NC(=O)[C@@H]3CCCN3C(=O)[C@H](C(C)C)NC(=O)[C@@H](Cc3ccc(O)cc3)N(C)C(=O)[C@H](Cc3ccc(OC)cc3)NC2=O)cc1 (cyclo(PY(Me)Y(Me)[dNMeY]V)),pIC50,[2],5.02
CCCCC/C=C/C1=C(CO)[C@@H]2OC(C)(C)[C@@H](O)C[C@]2(O)[C@H](O)[C@@H]1O,pIC50,[6],4.14
CC(O)c1cc2c(cc1O)C(=O)c1cc(O)cc(O)c1C2=O (stereo unspecified),pIC50,[17],4.59
Nc1nc2c(ncn2COCCO)c(=O)[nH]1 [ACYCLOVIR],pEC50,[1],5.52
same,pIC50,[9],5.46
CCCCCCCCC[C@H]1CCCC(=O)N[C@H](CO)C(=O)N[C@H](C)C(=O)N2CCC[C@H]2C(=O)N[C@@H](CCC(N)=O)C(=O)N[C@H](Cc2ccc(O)cc2)C(=O)N[C@@H](C(C)C)C(=O)O1,pEC50,[1],4.81
COc1cc(O)c2c(c1)[C@H](O)[C@](O)(CO)CC2=O,IC50,[14],1 µg/mL
Nc1nc2c(ncn2COC(CO)CO)c(=O)[nH]1 [GANCICLOVIR],pEC50,[12],7.60
C=C(C)C#CC1=C[C@@H]2O[C@@H](C(C)(C)O)C[C@]23O[C@@H]3[C@H]1O,pIC50,[8],< 4.00
CC[C@H](C)c1nc(OC)c(Cc2c[nH]c3ccccc23)nc1O,pIC50,[5],5.34
same,pIC50,[22],5.11
CC(C)[C@@H]1NC(=O)[C@@H](C[C@@]2(O)c3ccccc3N3C(=O)C(C)(C)N[C@@H]32)n2c1nc1ccccc1c2=O,Activity,[23],50%
Cc1c2c(c3oc4c(C)c(=O)c(C)c5c-4c(c3c1O)O[C@H](C)[C@H]5C)O[C@H](C)[C@H]2C,pIC50,[16],4.84
COc1cc(O)c2c(c1)[C@H](O)[C@](O)(CC(C)=O)CC2=O,IC50,[14],0.1 µg/mL
C[C@@H]1C/C=C/C(=O)C/C=C/[C@H](O)CC(=O)O1,pIC50,[24],6.35
CC1=C[C@@H]2CCC[C@H](C)[C@H]2[C@H](/C(O)=C2\C(=O)[C@@H](C(C)C)N(C)C2=O)[C@H]1[C@@H]1O[C@H]1C,pIC50,[9],5.03
CC(=O)[C@H]1CC[C@H]2C3=CC(=O)[C@H]4C[C@H](O)CC[C@]4(C)[C@H]3CC[C@]12C,pIC50,[20],4.79
C=C(C)C#CC1=C[C@@H]2O[C@@H](C(C)(C)O)C[C@]23O[C@@H]3[C@@H]1O,pIC50,[19],4.52
COc1ccc(-c2cc3c(c(=O)o2)C[C@]2(O)[C@@]4(C)C(=O)C=CC(C)(C)[C@]4(O)CC[C@@]2(C)O3)cc1OC,IC50,[21],6.34 µg/mL
CC(C)CC[C@@H]1NC(=O)/C(=C/c2ccccc2)NC1=O,pIC50,[4],5.17
CCC[C@H]1C[C@H]2OC(=O)c3c(cc(OC)c(OC)c3O)[C@H]2O1 [MONOCERIN],pIC50,[4],3.76
